Consider ten compounds from ChEMBL document CHEMBL1201862, “PubChem BioAssay data set” (2004).

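How tested: cells in 96-well plates exposed to compound for 48 hours at five concentrations. Abbreviation: GI50, concentration required for 50% inhibition of growth.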 Calls of active or inactive are those of the source. Rule as the data show it: active = GI50 up to about 1.1 µM and inactive = higher.

Some test systems named below: MDA-N; U-251; NCI-H23; TK-10; CAKI-1; A549; SK-OV-3; MCF7; KM12; HCC 2998; SK-MEL-5; OVCAR-3; Malme-3M; SK-MEL-2; UACC-62; SF-539; SR; NCI-H226; T47D.
Holding throughout (test): NCI tumour cell line growth inhibition, 48 h

In the case of `O=S(=O)(c1ccccc1)N1CCN(S(=O)(=O)c2ccccc2)c2ccccc21`, the GI50 is 89.5 µM (inactive) in the assay on MDA-N; > 100 µM (inactive) with U-251; 52.1 µM (inactive) with NCI-H23; > 100 µM (inactive) with TK-10; > 100 µM (inactive) in the assay with CAKI-1; > 100 µM (inactive) in the assay on A549. Besides, the GI50 was > 100 µM (inactive) with SK-OV-3; 91.8 µM (inactive) in the assay on MCF7; > 100 µM (inactive) with KM12; > 100 µM (inactive) in the assay on HCC 2998; 73.3 µM (inactive) in the assay on SK-MEL-5; > 100 µM (inactive) with OVCAR-3. The GI50 in the assay on Malme-3M was > 100 µM (inactive); with SK-MEL-2, > 100 µM (inactive); in the assay with UACC-62, 64.7 µM (inactive); in the assay with SF-539, > 100 µM (inactive); in the assay on SR it was > 100 µM (inactive); with NCI-H226, > 100 µM (inactive). The GI50 in the assay with T47D was > 100 µM (inactive).
On to `O=C(Nc1nncs1)NS(=O)(=O)n1cnc2ccccc21`, for which the GI50 in the assay on MDA-N, in the assay on U-251, in the assay on NCI-H23, in the assay on TK-10, with CAKI-1 and in the assay with A549 was > 100 µM (inactive) throughout. For the same compound, the GI50 was > 100 µM (inactive) in the assay with SK-OV-3; > 10 µM (inactive) in the assay on MCF7; > 100 µM (inactive) in the assay with KM12; > 100 µM (inactive) in the assay with HCC 2998; > 100 µM (inactive) with SK-MEL-5; > 100 µM (inactive) with OVCAR-3. The GI50 with Malme-3M, in the assay with SK-MEL-2, with UACC-62, in the assay with SF-539, in the assay with SR and in the assay with NCI-H226 was > 100 µM (inactive) throughout. Besides, the GI50 with T47D was > 100 µM (inactive).
On to `CN(C)CCNS(=O)(=O)c1ccc(N)cc1`, for which the GI50 in the assay with MDA-N, in the assay on U-251, in the assay on NCI-H23, in the assay with TK-10, with CAKI-1 and in the assay on A549 was > 100 µM (inactive) each time. Further, the GI50 with SK-OV-3 is > 100 µM (inactive); with MCF7 it was > 100 µM (inactive); in the assay with KM12, > 100 µM (inactive); in the assay on HCC 2998 it was > 100 µM (inactive); in the assay with SK-MEL-5, > 100 µM (inactive); in the assay on OVCAR-3 it was 17.2 µM (inactive). Besides, the GI50 is > 100 µM (inactive) with Malme-3M; 18 µM (inactive) with SK-MEL-2; > 100 µM (inactive) in the assay on UACC-62; > 100 µM (inactive) with SF-539; > 100 µM (inactive) in the assay on SR; > 100 µM (inactive) with NCI-H226. Further, the GI50 in the assay with T47D is > 100 µM (inactive).
As to `NCC(=O)N1CCN(c2nc(N3CCCC3)c3nc(Cl)c(NCc4ccccc4)nc3n2)CC1`, the GI50 with MDA-N was 1.82 µM (inactive); with U-251 it was 1.71 µM (inactive); in the assay on NCI-H23, 1.95 µM (inactive); in the assay on TK-10 it was 1.9 µM (inactive); with CAKI-1, 2.44 µM (inactive); with A549, 1.87 µM (inactive). Moreover, the GI50 in the assay with SK-OV-3 was 1.81 µM (inactive); in the assay on MCF7 it was 1.83 µM (inactive); with KM12, 2.04 µM (inactive); in the assay on HCC 2998, 1.66 µM (inactive); with SK-MEL-5 it was 1.72 µM (inactive); in the assay with OVCAR-3 it was 1.82 µM (inactive). Moreover, the GI50 in the assay on Malme-3M is 2.15 µM (inactive); in the assay on SK-MEL-2 it was 1.86 µM (inactive); in the assay on UACC-62, 1.8 µM (inactive); with SF-539, 1.99 µM (inactive); in the assay on SR, 1.56 µM (inactive); in the assay on NCI-H226, 3.66 µM (inactive). Moreover, the GI50 in the assay on T47D was 1.42 µM (inactive).
`O=C1c2cccnc2C(=O)c2c1nc1ccccc1c2-c1ccc2c3c(nc4ccccc42)C(=O)c2cccnc2-c13`: the GI50 in the assay with MDA-N is 2.13 µM (inactive); with U-251, 1.75 µM (inactive); in the assay with NCI-H23, 1.06 µM (active); with TK-10, 2.76 µM (inactive); with CAKI-1, 1.75 µM (inactive); in the assay with A549 it was 2.17 µM (inactive). Further, the GI50 with SK-OV-3 was 1.85 µM (inactive); in the assay on MCF7, 2.07 µM (inactive); in the assay on KM12, 0.971 µM (active); in the assay on HCC 2998 it was 1.59 µM (inactive); with SK-MEL-5, 0.467 µM (active); in the assay with OVCAR-3, 0.244 µM (active). Further, the GI50 in the assay on Malme-3M was 1.04 µM (active); in the assay with SK-MEL-2, 2.1 µM (inactive); in the assay with UACC-62, 1.73 µM (inactive); in the assay on SF-539, 0.832 µM (active); with SR, < 0.01 µM (active); with NCI-H226, 0.859 µM (active). Moreover, in the assay with T47D, the GI50 was 4.58 µM (inactive).
On to `O=C1c2ccc(O)cc2OC(c2cc(O)c(O)c(O)c2)C1O` (stereo not given) [DIHYDROBINETIN], for which the GI50 in the assay with MDA-N was 18.4 µM (inactive); in the assay on U-251 it was 22.5 µM (inactive); in the assay on NCI-H23, 34.5 µM (inactive); in the assay with TK-10, 23.6 µM (inactive); with CAKI-1, 53.8 µM (inactive); with A549 it was > 100 µM (inactive). The GI50 was > 100 µM (inactive) in the assay with SK-OV-3; 25.7 µM (inactive) in the assay with MCF7; 26.7 µM (inactive) in the assay with KM12; 31.6 µM (inactive) in the assay with HCC 2998; 33 µM (inactive) in the assay with SK-MEL-5; 47.9 µM (inactive) in the assay with OVCAR-3. Also, the GI50 was > 100 µM (inactive) in the assay on Malme-3M; 33.1 µM (inactive) in the assay with SK-MEL-2; 30.1 µM (inactive) in the assay on UACC-62; 21.5 µM (inactive) with SF-539; 20.5 µM (inactive) in the assay with SR; 39.1 µM (inactive) in the assay with NCI-H226. Further, the GI50 in the assay on T47D is 37.8 µM (inactive).
Regarding `CC(C)c1ccc(C(c2c(O)oc3ccccc3c2=O)c2c(O)oc3ccccc3c2=O)cc1`, the GI50 was 21.5 µM (inactive) in the assay on MDA-N; 15.1 µM (inactive) in the assay with U-251; 23.9 µM (inactive) in the assay with NCI-H23; 24.6 µM (inactive) in the assay on TK-10; 22.8 µM (inactive) in the assay with CAKI-1; 19.1 µM (inactive) in the assay on A549. Further, the GI50 in the assay with SK-OV-3 was 27 µM (inactive); in the assay on MCF7 it was 27.9 µM (inactive); in the assay on KM12, 19.5 µM (inactive); in the assay with HCC 2998, 18.7 µM (inactive); in the assay on SK-MEL-5, 16 µM (inactive); in the assay on OVCAR-3, 18.7 µM (inactive). Further, the GI50 with Malme-3M was 20.6 µM (inactive); in the assay on SK-MEL-2, 14.5 µM (inactive); in the assay on UACC-62, 15.5 µM (inactive); in the assay with SF-539, 21.8 µM (inactive); in the assay with SR, 9.64 µM (inactive); in the assay with NCI-H226 it was 20.6 µM (inactive). In addition, the GI50 in the assay with T47D was 31.2 µM (inactive).
For the compound `COC12C=CC(CC1)C(C)(C)C2=O` (stereo not given), the GI50 in the assay with MDA-N, in the assay on U-251, in the assay with NCI-H23, in the assay with TK-10, in the assay on CAKI-1 and in the assay on A549 was > 100 µM (inactive) each time. Besides, the GI50 in the assay with SK-OV-3, with MCF7, in the assay on KM12, in the assay with HCC 2998, in the assay on SK-MEL-5 and in the assay with OVCAR-3 was > 100 µM (inactive) throughout. The GI50 in the assay with Malme-3M, in the assay on SK-MEL-2, in the assay with UACC-62, in the assay with SF-539, with SR and in the assay on NCI-H226 was > 100 µM (inactive) in each case. In the assay on T47D, the GI50 is > 100 µM (inactive).
Turning to `CCOC(=O)C1(C(=O)OCC)[C@@H](c2ccccc2)C2=NO[C@@H]3CCC[C@H]1[C@H]23`, the GI50 was 24.5 µM (inactive) in the assay on MDA-N; 47.5 µM (inactive) with U-251; 42.5 µM (inactive) in the assay on NCI-H23; 49.4 µM (inactive) with TK-10; 44.9 µM (inactive) in the assay on CAKI-1; 48.4 µM (inactive) in the assay with A549. Further, the GI50 with SK-OV-3 was 53.6 µM (inactive); in the assay on MCF7, 41.7 µM (inactive); in the assay with KM12, 28.9 µM (inactive); in the assay on HCC 2998, 18 µM (inactive); in the assay with SK-MEL-5, 24.3 µM (inactive); in the assay on OVCAR-3 it was 27 µM (inactive). Besides, the GI50 in the assay on Malme-3M was > 100 µM (inactive); with SK-MEL-2, 55.5 µM (inactive); in the assay with UACC-62 it was 8.26 µM (inactive); in the assay on SF-539 it was 96.2 µM (inactive); with SR, 40.7 µM (inactive); in the assay on NCI-H226, 78.5 µM (inactive). For the same compound, the GI50 in the assay with T47D is 20.8 µM (inactive).
On to `CCc1cccc(C(C)C)c1NC(=O)C(=O)C1C(=O)Nc2ccccc2[S+]1[O-]` (stereo not given), for which the GI50 in the assay on MDA-N, in the assay on U-251, with NCI-H23, with TK-10, in the assay on CAKI-1 and in the assay on A549 was > 100 µM (inactive) in each case. Besides, the GI50 in the assay with SK-OV-3, in the assay on MCF7, with KM12, in the assay with HCC 2998, with SK-MEL-5 and in the assay with OVCAR-3 was > 100 µM (inactive) each time. Besides, the GI50 with Malme-3M, with SK-MEL-2, in the assay with UACC-62, with SF-539, in the assay on SR and in the assay on NCI-H226 was > 100 µM (inactive) throughout. In addition, in the assay on T47D, the GI50 was > 100 µM (inactive).
